Experimental data: patent US20210062159A1, “CELL AGGREGATION PROMOTER” (KANEKA CORPORATION, priority 2017, published 2021)

Experiments:
Format in all cases: cell-based
[1] = test system: human iPS cells (TkDN4-M cell lines); test: Glucose consumption of suspension culture (biosensor BF-5iD); settings: Day 1 to Day 5 of culture, CCG-1423 added condition, FIG. 4
Description: A cell suspension was prepared in the same manner as in Example 2, and separately, the cell aggregation promoter was adjusted so that the final concentration of CCG-1423 (same as above) was 4.55 mg/mL (10 mM), then the adjusted cell aggregation promoter was added to the cell suspension so that the final concentration of CCG-1423 was 10 μM, and the cells were seeded at a ratio of 4 mL/well in a 6-well plate for suspension culture (Sumitomo Bakelite Co., Ltd.). The cell-seeded plate was subjected to a swirling culture on a rotary shaker (OPTIMA, Inc.) at a speed of 90 rpm along the horizontal plane to draw a circle with a swirling width (diameter) of 25 mm and cells were cultured in suspension under a condition at 5% CO2 and 37° C. […] While 208 cell aggregates in images obtained at Day 1 of culture being observed and compared using a micrograph scale, the width (referred to as “φ”) of the widest portion of each cell aggregate was measured, distribution thereof was examined, and average±standard deviation was calculated. The concentration of glucose contained in the culture supernatant collected at the time of culture medium exchange was measured with biosensor BF-5iD (Prince Measuring Equipment Co., Ltd.) to calculate glucose consumption.

[2] = test system: human iPS cells (TkDN4-M cell lines); test: Number of dead cells, Cytotoxicity LDH Assay Kit-WST, Day 1 of suspension culture; settings: 10 μM CCG-1423, 2.5 μM Y-27632, Day 1 of culture, FIG. 2
Description: Human iPS cells that had been cultured using the protocol of Example 1 were treated with Accutase for 3 to 5 minutes and were detached and dispersed to single cells. The resulting cells were suspended in Essential 8™ culture medium containing a final concentration of 5 mg/mL of BSA (Wako Pure Chemical Industries, Ltd.) and a final concentration of 2.5 μM of Y-27632 (Wako Pure Chemical Industries, Ltd.), and a portion thereof was stained with trypan blue and the number of cells was counted. The cell suspension was prepared so as to contain 2×10^5 cells per ml. Separately, the cell aggregation promoter was adjusted so that the final concentration of CCG-1423 (Cayman, 10010350) was 4.55 mg/mL (10 mM), then the adjusted cell aggregation promoter was added to the cell suspension so that the final concentration of CCG-1423 was 10 μM. Then the cells were seeded at a ratio of 1.3 mL/well in a 12-well plate for suspension culture (Sumitomo Bakelite Co., Ltd.). […]
At the next day after the start of culture (Day 1 of culture), images were obtained by phase contrast microscopy, and the number of dead cells was calculated with Cytotoxicity LDH Assay Kit-WST (Peer Chemistry Research Institute, Inc.).

[3] = test system: human iPS cells (TkDN4-M cell lines); test: Cell aggregate formation and size (widest portion) in swirling suspension culture, phase contrast microscopy; settings: for Number of cell aggregates by size / Percentage of cell aggregates by size: CCG-1423 added
Description: A cell suspension was prepared in the same manner as in Example 2, and separately, the cell aggregation promoter was adjusted so that the final concentration of CCG-1423 (same as above) was 4.55 mg/mL (10 mM), then the adjusted cell aggregation promoter was added to the cell suspension so that the final concentration of CCG-1423 was 10 μM, and the cells were seeded at a ratio of 4 mL/well in a 6-well plate for suspension culture (Sumitomo Bakelite Co., Ltd.). The cell-seeded plate was subjected to a swirling culture on a rotary shaker (OPTIMA, Inc.) at a speed of 90 rpm along the horizontal plane to draw a circle with a swirling width (diameter) of 25 mm and cells were cultured in suspension under a condition at 5% CO2 and 37° C. After the next day of culture (Day 1 of culture), the culture medium was exchanged daily for a fresh culture medium (Essential 8™ culture medium containing BSA (Wako Pure Chemical Industries, Ltd.) at a final concentration of 5 mg/mL), and the culture continued until 5 days after the start of culture. A control test was conducted by culturing in the same way except for using CCG-1423 and Y-27632 free culture media. Images were obtained by phase contrast microscopy every day during culture. While 208 cell aggregates in images obtained at Day 1 of culture being observed and compared using a micrograph scale, the width (referred to as “φ”) of the widest portion of each cell aggregate was measured, distribution thereof was examined, and average±standard deviation was calculated. The concentration of glucose contained in the culture supernatant collected at the time of culture medium exchange was measured with biosensor BF-5iD (Prince Measuring Equipment Co., Ltd.) to calculate glucose consumption.

[4] = test system: human iPS cells (TkDN4-M cell lines); test: Percentage of cells positive for undifferentiation markers (SOX2, OCT4, Nanog), flow cytometry; settings: Day 5 of culture, aggregates produced in medium comprising CCG-1423, FIG. 6
Description: In addition, at Day 5 of culture, cell aggregates were collected, dispersed with Accutase, and then suspended in Essential 8™ culture medium containing 5 mg/mL BSA. A portion of this cell suspension was stained with trypan blue and the number of cells was counted. After the above cell suspensions were centrifuged at 300 g for 3 minutes, the supernatant was then removed, and the cells were washed with PBS (phosphate buffered saline). Next, the cells were fixed with 4% paraformaldehyde (Wako Pure Chemical Industries, Ltd.) at room temperature for 20 minutes, then washed 3 times with PBS. After cells were resuspended with 300 μL of PBS, 3 mL of cold methanol was added while stirring with voltex, and permeabilized at −20° C. overnight or more. After 3 washes with 3% FBS (fetal bovine serum)/PBS, cells were resuspended with 3% FBS (fetal bovine serum)/PBS and blocked at room temperature for 30 minutes to 1 hour. Subsequently, the cells were stained with fluorescently labeled anti-SOX2 antibodies (Cat. No. 656110, BioLegend, Inc.) and fluorescently labeled anti-OCT4 antibodies (Cat. No. 653703, BioLegend, Inc.) and fluorescently labeled anti-Nanog antibodies (Cat. No. 674010, BioLegend, Inc.) at 4° C. for 30 minutes to 1 hour. After washed once with 3% FBS (fetal bovine serum)/PBS, the cells were made to pass through a cell strainer. The resulting cells were analyzed on FACSVerse. A control test was conducted using cells that were treated in the same way except for reacting, instead of the above three antibodies (fluorescently labeled anti-SOX2 antibody, fluorescently labeled anti-OCT4 antibody, fluorescently labeled anti-Nanog antibody), with three fluorescently labeled isotype control antibodies (Cat. No. 400129, Cat. No. 400314, Cat. No. 400136; BioLegend, Inc.) corresponding to each of the above three antibodies.

[5] = test system: human iPS cells (TkDN4-M cell lines); test: Cell yield at Day 5 of suspension culture (trypan blue, hemocytometer); settings: Day 5 of culture, aggregates formed with 10 μM CCG-1423, FIG. 5
Description: A cell suspension was prepared in the same manner as in Example 2, and separately, the cell aggregation promoter was adjusted so that the final concentration of CCG-1423 (same as above) was 4.55 mg/mL (10 mM), then the adjusted cell aggregation promoter was added to the cell suspension so that the final concentration of CCG-1423 was 10 μM, and the cells were seeded at a ratio of 4 mL/well in a 6-well plate for suspension culture (Sumitomo Bakelite Co., Ltd.). […] While 208 cell aggregates in images obtained at Day 1 of culture being observed and compared using a micrograph scale, the width (referred to as “φ”) of the widest portion of each cell aggregate was measured, distribution thereof was examined, and average±standard deviation was calculated. The concentration of glucose contained in the culture supernatant collected at the time of culture medium exchange was measured with biosensor BF-5iD (Prince Measuring Equipment Co., Ltd.) to calculate glucose consumption.
In addition, at Day 5 of culture, cell aggregates were collected, dispersed with Accutase, and then suspended in Essential 8™ culture medium containing 5 mg/mL BSA. A portion of this cell suspension was stained with trypan blue and the number of cells was counted. […] The resulting cells were analyzed on FACSVerse. […]
Cell yields were also measured at Day 5 of culture. […]

[6] = test system: human iPS cells (TkDN4-M cell lines); test: Cell aggregation assay, suspension culture, phase contrast microscopy at Day 1; settings: 10 μM CCG-1423, 2.5 μM Y-27632, Day 1 of culture, 12-well plate, FIG. 1
Description: TkDN4-M cell lines (Institute of Medical Science, The University of Tokyo) were used as human iPS cells. Human iPS cells were seeded on cell culture dishes coated with Vitronectin (Thermo Fisher Scientific Co., Ltd.) and subjected to a maintenance culture using Essential 8™ (Thermo Fisher Scientific Co., Ltd.) as the culture medium. Accutase (Thermo Fisher Scientific Co., Ltd.) was used as a cell detachment agent during passage. In addition, when the cells were seeded, Y-27632 (Wako Pure Chemical Industries, Ltd.) at a concentration of 10 μM was added to a culture medium. The culture medium was changed every day. For experiments, human iPS cells (the number of passage was 50 or less) were used.
Human iPS cells that had been cultured using the protocol of Example 1 were treated with Accutase for 3 to 5 minutes and were detached and dispersed to single cells. The resulting cells were suspended in Essential 8™ culture medium containing a final concentration of 5 mg/mL of BSA (Wako Pure Chemical Industries, Ltd.) and a final concentration of 2.5 μM of Y-27632 (Wako Pure Chemical Industries, Ltd.), and a portion thereof was stained with trypan blue and the number of cells was counted. The cell suspension was prepared so as to contain 2×10^5 cells per ml. […]

[7] = Day 1 of culture, 10 μM CCG-1423
[8] = size range 40- μm, Day 1 of culture
[9] = size range 60- μm, Day 1 of culture
[10] = size range 80- μm, Day 1 of culture
[11] = size range 100- μm, Day 1 of culture
[12] = size range 120- μm, Day 1 of culture
[13] = size range 140- μm, Day 1 of culture
[14] = size range 160- μm, Day 1 of culture
[15] = size range 180- μm, Day 1 of culture
[16] = size range 200- μm, Day 1 of culture
[17] = size range 220- μm, Day 1 of culture
[18] = size range 240- μm, Day 1 of culture
[19] = size range 260- μm, Day 1 of culture
[20] = size range 280- μm, Day 1 of culture
[21] = size range 300- μm, Day 1 of culture

## CC(ONC(=O)c1cc(C(F)(F)F)cc(C(F)(F)F)c1)C(=O)Nc1ccc(Cl)cc1 (stereo not drawn) [CCG-1423, N-[2-[4(4-chlorophenyl)amino]-1-methyl-2-oxoethoxy]-3,5-bis(trifluoromethyl)-benzamide]
[1]
  glucose consumption: increased daily
[2]
  number of dead cells compared to the control test (0 μM CCG-1423): reduced
[3]; 10 μM CCG-1423, 6-well plate, FIG. 3
  cell aggregate formation after seeding to Day 1 of culture: cell aggregates were formed
[3]; 10 μM CCG-1423 until Day 1, then medium exchanged daily, Day 1 to Day 5, FIG. 3
  cell aggregates on continued culture to Day 5: cell aggregates were expanded
[3]; [7]
  percentage of cell aggregates with size (diameter) 60 μm or more and 300 μm or less: 99.5%
  percentage of cell aggregates with size (diameter) 80 μm or more and 300 μm or less: 98.5%
  percentage of cell aggregates with size (diameter) 100 μm or more and 300 μm or less: 98.5%
[3]; Day 1 of culture, 10 μM CCG-1423, 208 cell aggregates
  average±standard deviation of cell aggregate size (diameter): 171.3±22.8 μm
[3]; Day 1 of culture, 10 μM CCG-1423, to total cell aggregate count
  percentage of cell aggregates with size (diameter) 40 μm or more and 300 μm or less: 100%
[3]; [8]
  Number of cell aggregates by size: 1
  Percentage of cell aggregates by size: 0.5%
[3]; [9]
  Number of cell aggregates by size: 2
  Percentage of cell aggregates by size: 1.0%
[3]; [10]
  Number of cell aggregates by size: 0
  Percentage of cell aggregates by size: 0.0%
[3]; [11]
  Number of cell aggregates by size: 2
  Percentage of cell aggregates by size: 1.0%
[3]; [12]
  Number of cell aggregates by size: 6
  Percentage of cell aggregates by size: 2.9%
[3]; [13]
  Number of cell aggregates by size: 39
  Percentage of cell aggregates by size: 18.8%
[3]; [14]
  Number of cell aggregates by size: 87
  Percentage of cell aggregates by size: 41.8%
[3]; [15]
  Number of cell aggregates by size: 60
  Percentage of cell aggregates by size: 28.8%
[3]; [16]
  Number of cell aggregates by size: 9
  Percentage of cell aggregates by size: 4.3%
[3]; [17]
  Number of cell aggregates by size: 2
  Percentage of cell aggregates by size: 1.0%
[3]; [18]
  Number of cell aggregates by size: 0
  Percentage of cell aggregates by size: 0.0%
[3]; [19]
  Number of cell aggregates by size: 0
  Percentage of cell aggregates by size: 0.0%
[3]; [20]
  Number of cell aggregates by size: 0
  Percentage of cell aggregates by size: 0.0%
[3]; [21]
  Number of cell aggregates by size: 0
  Percentage of cell aggregates by size: 0.0%
[4]
  percentage of cells positive for Nanog: ≥ 99%
  percentage of cells positive for OCT4: ≥ 97%
  percentage of cells positive for SOX2: ≥ 99%
[5]
  proliferation of the number of seeded cells (8×10^5 cells/well): approximately 8.5 fold
[6]
  cell aggregation compared to the control test (0 μM CCG-1423): aggregation was promoted
